Values of other authors in patent publication US7378114B2, “Method for producing soluble composition containing isoflavones” (Fuji Oil Company, Limited, priority 2001, dated 2008).

Conditions: under 25° C.; according to the literature; per 100 g solvent

solubility in water: 0.002 to 0.003 g
Compound: O=c1c(-c2ccccc2)coc2ccccc12 [isoflavone]
